Assay results published in patent EP4810052A2, “HCRHR2 SELECTIVE POLYPEPTIDES” (Gubra A/S, priority 2023, dated 2026).
Like-named read-outs stand apart in the source and are kept apart here. Starred links: 1 amine or outer side, 2 acyl side, 3 side chain; linkers in the order of their positions; H or OH if unused. Non-standard residues stand in square brackets, D forms with d. Residues, ends and D or L forms follow the SMILES beside them. Groups on a side chain read outwards from the residue. *: point of attachment. C20 diacid = O=C(O)CCCCCCCCCCCCCCCCCCC(=O)*; γGlu = O=C(O)[C@H](CCC(=O)[*:2])N[*:1]; NMeI = CC[C@H](C)[C@H](NC)C(=O)O; Nle = CCCC[C@H](N)C(=O)O; AEEA = NCCOCCOCC(=O)O; Aib = CC(C)(N)C(=O)O

How the values were obtained:
[1] = Chemical stability of purified peptides (RP-UHPLC main peak purity loss); type: physicochemical
Outline: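 Purity loss is the drop in RP-UHPLC main-peak area fraction (215 nm detection, C8 column at 50 °C) from time zero to day 14 and/or day 28 at 40 °C. Samples held roughly 1.0 mg/ml peptide in 50 mM phosphate, pH 7.5, with other pH targets also tested.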

hCRHR1 = target: T1, hCRHR1 (Homo sapiens, UniProt P34998); test: HTRF cAMP assay, determination of hCRHR1 potency (peptide libraries 5 conc., purified peptides 11 conc.); type: cell-based; conditions: read-out: hCRHR1 EC50
T1 sequence (P34998 24-415): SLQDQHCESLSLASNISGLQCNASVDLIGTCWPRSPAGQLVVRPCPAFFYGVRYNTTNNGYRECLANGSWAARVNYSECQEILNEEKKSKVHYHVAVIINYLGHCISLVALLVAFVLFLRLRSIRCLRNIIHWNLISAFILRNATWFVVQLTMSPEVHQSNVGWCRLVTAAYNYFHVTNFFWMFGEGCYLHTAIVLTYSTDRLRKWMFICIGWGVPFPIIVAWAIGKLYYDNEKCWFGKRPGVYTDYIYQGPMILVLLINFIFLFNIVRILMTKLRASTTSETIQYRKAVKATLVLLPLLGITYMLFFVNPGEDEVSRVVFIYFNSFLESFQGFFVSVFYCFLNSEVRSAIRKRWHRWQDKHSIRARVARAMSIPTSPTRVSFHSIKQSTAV
Outline: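 Cellular cAMP was read by time-resolved FRET between d2-labelled cAMP and cryptate anti-cAMP antibody. The cells were freshly thawed suspension CHO-K1 cells stably expressing human CRHR1.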

PK in mice = type: in vivo; parameters: T½ / MRT: unit: h; conditions: Mouse
Protocol: Lean male NMRI/RjHan mice were obtained from JanVier (JanVier Labs, France) at 6 weeks of age. The animals were single housed under a 12/12 h dark-light cycle, light off at 3 PM. Room temperature was controlled to 22°C ± 1°C, with 60 % ± 20% humidity. Animals had ad libitum access to regular rodent chow (Altromin 1324, Brogaarden, Denmark) and tap water.
After 2 weeks of acclimatization, the animals were randomized into treatment groups (n=9 per group) based on body weight. Animals were dosed IV with one peptide and SC with another peptide (15 or 50 nmol/kg) Plasma samples were collected for PK analysis at times 0.17, 1, 3, 6, 24, 30, 48, 72 and 96 hours post dosing in a sparse sampling design with 3 mice per group per timepoint. Plasma samples were analyzed using LC-MSMS and PK parameters were estimated by Non-Compartmental Analysis (NCA).

[2] = pH 7.5, 40°C, 14 days, first value of cell
[3] = pH 7.5, 40°C, 28 days, second value of cell
[4] = purified peptides, CHO-K1 cells stably expressing hCRHR1, cAMP HTRF

| Structure (SMILES) | Chemical stability at pH 7.5 after 14 days at 40°C (% degradation) [1, 2] [%] | Chemical stability at pH 7.5 after 28 days at 40°C (% degradation) [1, 3] [%] | EC50 (hCRHR1; [4]) [µM] | MRT (PK in mice) | T½ (PK in mice) | Chemical stability at pH 7.5 after 14 days at 40°C (% degradation) ([1]; pH 7.5, 14 days, 40°C) [%] | Chemical stability at pH 7.5 after 28 days at 40°C (% degradation) ([1]; pH 7.5, 28 days, 40°C) [%] | EC50 (hCRHR1; Table 5, purified peptides) [µM] |
| --- | --- | --- | --- | --- | --- | --- | --- | --- |
| CC[C@H](C)[C@H](N)C(=O)N[C@H](C(=O)N[C@@H](CC(C)C)C(=O)N[C@@H](CO)C(=O)N[C@@H](CC(C)C)C(=O)N[C@@H](CC(=O)O)C(=O)N[C@H](C(=O)N1CCC[C@H]1C(=O)N[C@H](C(=O)NCC(=O)N[C@@H](CC(C)C)C(=O)N[C@@H](CC(C)C)C(=O)N[C@@H](CCC(N)=O)C(=O)N[C@H](C(=O)N[C@@H](CC(C)C)C(=O)N[C@@H](CC(C)C)C(=O)N[C@@H](CCC(=O)O)C(=O)N[C@@H](CCC(N)=O)C(=O)N[C@@H](C)C(=O)N[C@@H](CCCNC(=N)N)C(=O)N[C@@H](C)C(=O)N[C@@H](CCCNC(=N)N)C(=O)N[C@@H](C)C(=O)N[C@@H](C)C(=O)N[C@@H](CCCNC(=N)N)C(=O)N[C@@H](CCC(=O)O)C(=O)N[C@@H](CCC(N)=O)C(=O)N[C@@H](C)C(=O)N[C@@H](CCCCNC(=O)COCCOCCNC(=O)COCCOCCNC(=O)CC[C@H](NC(=O)CC[C@H](NC(=O)CCCCCCCCCCCCCCCCCCC(=O)O)C(=O)O)C(=O)O)C(=O)NC(C)(C)C(=O)N[C@@H](CC(N)=O)C(=O)N[C@@H](C)C(=O)N[C@@H](CCC(=O)O)C(=O)N[C@H](C(=O)N[C@@H](CC(C)C)C(=O)N[C@@H](C)C(=O)N[C@@H](CCC(=O)O)C(=O)N[C@H](C(N)=O)C(C)C)[C@@H](C)CC)[C@@H](C)CC)[C@@H](C)CC)C(C)C)C(C)C [SEQ ID NO: 19] (H-IVLSLDVPIGLLQILLEQARARAAREQAK([AEEA-AEEA-γGlu-γGlu-C20 diacid])[Aib]NAEILAEV-NH2) | -1.5 | -2.6 | > 5 | – | – | – | – | – |
| CC[C@H](C)[C@H](N)C(=O)N[C@H](C(=O)N[C@@H](CC(C)C)C(=O)N[C@@H](CO)C(=O)N[C@@H](CC(C)C)C(=O)N[C@@H](CC(=O)O)C(=O)N[C@H](C(=O)N1CCC[C@H]1C(=O)N[C@H](C(=O)NCC(=O)N[C@@H](CC(C)C)C(=O)N[C@@H](CC(C)C)C(=O)N[C@@H](CCC(N)=O)C(=O)N[C@H](C(=O)N[C@@H](CC(C)C)C(=O)N[C@@H](CC(C)C)C(=O)N[C@@H](CCC(=O)O)C(=O)N[C@@H](CCC(N)=O)C(=O)N[C@@H](C)C(=O)N[C@@H](CCCNC(=N)N)C(=O)N[C@@H](C)C(=O)N[C@@H](CCCNC(=N)N)C(=O)N[C@@H](C)C(=O)N[C@@H](C)C(=O)N[C@@H](CCCNC(=N)N)C(=O)N[C@@H](CCC(=O)O)C(=O)N[C@@H](CCC(N)=O)C(=O)N[C@@H](C)C(=O)N[C@@H](CCCCNC(=O)COCCOCCNC(=O)COCCOCCNC(=O)CC[C@H](NC(=O)CC[C@H](NC(=O)CCCCCCCCCCCCCCCCCCC(=O)O)C(=O)O)C(=O)O)C(=O)N[C@@H](CCC(=O)O)C(=O)N[C@@H](CC(N)=O)C(=O)N[C@@H](C)C(=O)N[C@@H](CCC(=O)O)C(=O)N[C@H](C(=O)N[C@@H](CC(C)C)C(=O)N[C@@H](C)C(=O)N[C@@H](CCC(=O)O)C(=O)N[C@H](C(N)=O)C(C)C)[C@@H](C)CC)[C@@H](C)CC)[C@@H](C)CC)C(C)C)C(C)C [SEQ ID NO: 17] (H-IVLSLDVPIGLLQILLEQARARAAREQAK([AEEA-AEEA-γGlu-γGlu-C20 diacid])ENAEILAEV-NH2) | -1.6 | -2.6 | > 5 | – | – | – | – | – |
| CC[C@H](C)[C@H](NC)C(=O)N[C@H](C(=O)N[C@@H](CC(C)C)C(=O)N[C@@H](CO)C(=O)N[C@@H](CC(C)C)C(=O)N[C@@H](CC(=O)O)C(=O)N[C@H](C(=O)N1CCC[C@H]1C(=O)N[C@H](C(=O)NCC(=O)N[C@@H](CC(C)C)C(=O)N[C@@H](CC(C)C)C(=O)N[C@@H](CCC(N)=O)C(=O)N[C@H](C(=O)N[C@@H](CC(C)C)C(=O)N[C@@H](CC(C)C)C(=O)N[C@@H](CCC(=O)O)C(=O)N[C@@H](CCC(N)=O)C(=O)N[C@@H](C)C(=O)N[C@@H](CCCNC(=N)N)C(=O)N[C@@H](C)C(=O)N[C@@H](CCCNC(=N)N)C(=O)N[C@@H](C)C(=O)N[C@@H](C)C(=O)N[C@@H](CCCNC(=N)N)C(=O)N[C@@H](CCC(=O)O)C(=O)N[C@@H](CCC(N)=O)C(=O)N[C@@H](C)C(=O)N[C@@H](CCCCNC(=O)COCCOCCNC(=O)COCCOCCNC(=O)CC[C@H](NC(=O)CC[C@H](NC(=O)CCCCCCCCCCCCCCCCCCC(=O)O)C(=O)O)C(=O)O)C(=O)N[C@H](C(=O)N[C@@H](CC(N)=O)C(=O)N[C@@H](C)C(=O)N[C@@H](CCC(=O)O)C(=O)N[C@H](C(=O)N[C@@H](CC(C)C)C(=O)N[C@@H](C)C(=O)N[C@@H](CCC(=O)O)C(=O)N[C@H](C(N)=O)C(C)C)[C@@H](C)CC)[C@@H](C)O)[C@@H](C)CC)[C@@H](C)CC)C(C)C)C(C)C [SEQ ID NO: 5] (H-[NMeI]VLSLDVPIGLLQILLEQARARAAREQAK([AEEA-AEEA-γGlu-γGlu-C20 diacid])TNAEILAEV-NH2) | – | – | > 5 | 21 | 14.3 | – | – | – |
| CCCC[C@H](NC(=O)[C@@H](NC(=O)[C@H](CCC(=O)O)NC(=O)[C@H](C)NC(=O)[C@H](CC(N)=O)NC(=O)C(C)(C)NC(=O)[C@H](CCCCNC(=O)COCCOCCNC(=O)COCCOCCNC(=O)CC[C@H](NC(=O)CC[C@H](NC(=O)CCCCCCCCCCCCCCCCCCC(=O)O)C(=O)O)C(=O)O)NC(=O)[C@H](C)NC(=O)[C@H](CCC(N)=O)NC(=O)[C@H](CCC(=O)O)NC(=O)[C@H](CCCNC(=N)N)NC(=O)[C@H](C)NC(=O)[C@H](C)NC(=O)[C@H](CCCNC(=N)N)NC(=O)[C@H](C)NC(=O)[C@H](CCCNC(=N)N)NC(=O)[C@H](C)NC(=O)[C@H](CCC(N)=O)NC(=O)[C@H](CO)NC(=O)[C@H](CC(C)C)NC(=O)[C@H](CC(C)C)NC(=O)[C@@H](NC(=O)[C@H](CCC(N)=O)NC(=O)[C@H](CC(C)C)NC(=O)[C@H](CC(C)C)NC(=O)CNC(=O)[C@@H](NC(=O)[C@@H]1CCCN1C(=O)[C@@H](NC(=O)[C@H](CC(=O)O)NC(=O)[C@H](CC(C)C)NC(=O)[C@H](CO)NC(=O)[C@H](CC(C)C)NC(=O)[C@@H](NC(=O)[C@@H](N)[C@@H](C)CC)C(C)C)C(C)C)[C@@H](C)CC)[C@@H](C)CC)[C@@H](C)CC)C(=O)N[C@@H](C)C(=O)N[C@@H](CCC(=O)O)C(=O)N[C@H](C(N)=O)C(C)C [compound 237] (H-IVLSLDVPIGLLQILLSQARARAAREQAK([AEEA-AEEA-γGlu-γGlu-C20 diacid])[Aib]NAEI[Nle]AEV-NH2) | – | – | – | – | – | -1.1 | -2.8 | > 5 |
| CCCC[C@H](NC(=O)[C@@H](NC(=O)[C@H](CCC(=O)O)NC(=O)[C@H](C)NC(=O)[C@H](CC(N)=O)NC(=O)[C@H](CCC(=O)O)NC(=O)[C@H](CCCCNC(=O)COCCOCCNC(=O)COCCOCCNC(=O)CC[C@H](NC(=O)CC[C@H](NC(=O)CCCCCCCCCCCCCCCCCCC(=O)O)C(=O)O)C(=O)O)NC(=O)[C@H](C)NC(=O)[C@H](CCC(N)=O)NC(=O)[C@H](CCC(=O)O)NC(=O)[C@H](CCCNC(=N)N)NC(=O)[C@H](C)NC(=O)[C@H](C)NC(=O)[C@H](CCCNC(=N)N)NC(=O)[C@H](C)NC(=O)[C@H](CCCNC(=N)N)NC(=O)[C@H](C)NC(=O)[C@H](CCC(N)=O)NC(=O)[C@H](CO)NC(=O)[C@H](CC(C)C)NC(=O)[C@H](CC(C)C)NC(=O)[C@@H](NC(=O)[C@H](CCC(N)=O)NC(=O)[C@H](CC(C)C)NC(=O)[C@H](CC(C)C)NC(=O)CNC(=O)[C@@H](NC(=O)[C@@H]1CCCN1C(=O)[C@@H](NC(=O)[C@H](CC(=O)O)NC(=O)[C@H](CC(C)C)NC(=O)[C@H](CO)NC(=O)[C@H](CC(C)C)NC(=O)[C@@H](NC(=O)[C@@H](NC)[C@@H](C)CC)C(C)C)C(C)C)[C@@H](C)CC)[C@@H](C)CC)[C@@H](C)CC)C(=O)N[C@@H](C)C(=O)N[C@@H](CCC(=O)O)C(=O)N[C@H](C(N)=O)C(C)C [compound 101] (H-[NMeI]VLSLDVPIGLLQILLSQARARAAREQAK([AEEA-AEEA-γGlu-γGlu-C20 diacid])ENAEI[Nle]AEV-NH2) | – | – | – | – | – | -2.2 | -4.3 | > 5 |
